In test [1] the test system is GL261 cells. As to the kind of experiment: cells. The class given is cell-based, mouse. As to conditions: read-out: IC50 (MTT assay). The method, then: The effect of TmHg and EtHg on the viability of GL261 and N9 cells was evaluated by the MTT assay as previously described ([Branco et al., 2014]). Briefly, cells (5 × 10^3) were seeded in 96-well plates (Nunc®) and incubated at 37°C for 24 h to allow proper adherence to plates. Afterwards, TmHg and EtHg (0, 0.5, 1, 2.5, and 5 μM) were added to wells. The same procedure was carried out to evaluate the effect of TMZ on the cellular viability of GL261 and DMSO at a final concentration of 0.1% was added as a control group. For co-exposure, the addition of the mercury compounds (EtHg—1 and 2 μM; TmHg—1 and 2 µM) under study followed the addition of TMZ (200 µM).
Cell viability was determined at the time of addition of the compounds (0 h) and after 24, 48, and 72 h of exposure by adding MTT to a final concentration of 400 μg/ml per well and incubating at 37°C for 4 h. After incubation, the medium was removed, and the formazan crystals were dissolved in a 4:1 DMSO/glycine buffer (pH 10.5). After shaking for 15 min, the viability was evaluated through the measurement of formazan absorption at 550 nm on a microplate reader (Zenyth 3100, Anthos Labtec Instruments) ([Branco et al., 2014]).
The IC50 is the concentration of a compound that decreases MTT reduction by 50% relative to the non-treated control at each time point.
On the technique in general: Tetrazolium assays rely on reduction of a dye to a coloured formazan, in cell work by metabolically active cells.

Test [2] has as its target T1, TrxR (Mus musculus, UniProt Q9JLT4).
T1 construct: These lysates were compared to a control group and used to quantify TrxR and Trx activity and expression; These fractions were used to quantify TrxR and Trx activity and expression; endogenous in cells; host or cells: GL261 mouse glioma cells (whole lysate, cytosolic and mitochondrial fractions)
The class given is cell-based. The note with it: mitochondria, 1 µM, 24 h. How it is done:
(§1) Total cell lysates were prepared according to previous protocols ([Branco et al., 2014]). 1 × 10^6 cells were plated in […] culture dishes incubated at 37°C until reaching 70–80% confluence. At this point, the culture medium was refreshed and TmHg and EtHg (0.5; 1; 2 µM) were added and incubated at 37°C for 24 h, after which cells were collected by trypsinization and washed with PBS 1x. Subsequently, the pellet was resuspended in lysis buffer (25 mM TrisCl, pH 7.5; 100 mM NaCl; 2.5 mM EDTA; 2.5 mM EGTA; 20 mM NaF, 1 mM sodium orthovanadate, 20 mM sodium pyrophosphate; 20 mM of sodium β-glycerophosphate, 0.5% Triton X-100, and 1 tablet of protease inhibitor cocktail per 10 ml; Roche) vortexed and frozen at −20°C. These lysates were compared to a control group and used to quantify TrxR and Trx activity and expression as described below.
(§2) To obtain the mitochondrial and cytosolic fractions, after exposure to Hg compounds cells were washed and suspended in mitochondrial isolation buffer (210 mM mannitol, 70 mM sucrose, 1 mM EDTA, 10 mM Hepes–NaOH, and pH 7.5), containing protease inhibitor cocktail (Roche). Cells were disrupted with a Teflon pestle and then centrifuged at 600 g for 10 min at 4°C. The resulting nuclear pellets were discarded, and the supernatant was further centrifuged at 13,000 g and 4°C for 15 min, to obtain the mitochondrial pellets and the supernatant soluble fraction. Mitochondrial pellets were treated with cell lysis buffer as described above for whole-cell lysates and the supernatant fraction was further centrifuged at 100,000 g and 4°C for 1 h, to produce the cytosolic fraction ([Branco et al., 2014]). These fractions were used to quantify TrxR and Trx activity and expression as described below.
(§3) The enzymatic activity of TrxR and Trx was determined according to the insulin end-point assay described by [Arnér and Holmgren (2000)] with modifications ([Branco et al., 2014]).
(§4) In parallel, control wells were prepared to contain the same reagents previously mentioned apart from Trx. After the incubation period, 250 µL of a 1 mM DTNB solution in 6 M guanidine-HCL (pH 8.0) was added to wells, and absorbance was measured at 412 nm in a microplate reader (Zenyth 3100, Anthos Labtec Instruments). […] The same procedure was done for the determination of Trx activity, but the samples were incubated with 100 nM of recombinant rat TrxR (IMCO Corp, Sweden) instead of Trx ([Branco et al., 2014]).

Test [3] has as its system TrxR. Format: cell-based, mouse. The note with it: for decrease of TrxR activity: cytosol, 1 µM, 24 h; for IC50: whole-cell lysates, GL261 exposed 24 h. How it is done: as §1, §2, §3, §4
The subject of test [4] is Trx. The class given is cell-based, mouse. As to conditions: whole-cell lysates, GL261 exposed 24 h. The method, then:
as §1, §2, §3, §4

Test [5] concerns Prx2. As to the kind of experiment: Prx2 redox state (dimer/monomer, non-reducing Western blot). The class given is cell-based, mouse. As to conditions: GL261, 1 and 2 μM, 24 h. How it is done: To evaluate the Prx2 redox state, cells were lysed in lysis buffer containing NEM (N-ethylmaleimide; Sigma) and, subsequently, the soluble protein fraction was separated by non-reducing SDS-PAGE electrophoresis, followed by transfer to a nitrocellulose membrane, after blockage with milk and incubation with the respective antibodies–Prx2 mouse monoclonal IgG (sc-515428, Sta. Cruz) and goat anti-mouse IgG-HRP (sc-2005, Sta. Cruz)—as previously described ([Brown et al., 2008]). The ratio between the bands of the Prx2 dimer and monomer was quantified for each sample using the Bio-Rad Quantity One software.
On the technique in general: In western blotting, separated proteins are transferred to a membrane and probed.

Test [6] concerns GL261 cells. Briefly: Guava ViaCount assay, apoptotic cells. As to conditions: GL261, 24 and 48 h exposure. The class given is cell-based, mouse. How it is done:
The ViaCount Assay was used to distinguish viable and non-viable cells based on the differential permeability of two dyes in the Guava ViaCount Reagent. The membrane-permeant dye stains all nucleated cells, leaving the cellular debris unstained, while the membrane-impermeant dye brightly stains damaged cells, thus indicating apoptotic and dying cells. GL261 cells (6 × 10^4) were seeded for 24 h in 24-well plates and thereafter were exposed to the TmHg and EtHg for 24 and 48 h. Following treatment, cells were collected from plates along with cell culture supernatants and centrifuged for 5 min (650 g). Supernatants were discarded and the cells were resuspended in phosphate-buffered saline (PBS) containing 2% FBS. Subsequently, 15 μL of cell suspension were mixed with 135 μL of Guava ViaCount reagent and incubated for 5 min at room temperature. Sample acquisition and data analysis were performed with the Guava easyCyte 5HT flow cytometer (GuavaTechnologies, Inc., Hayward, CA, United States) using the ViaCount software module.

Where two headings read alike, the source gives them in different places. Some results are limits rather than exact numbers.

T1 sequence (Q9JLT4 35-524): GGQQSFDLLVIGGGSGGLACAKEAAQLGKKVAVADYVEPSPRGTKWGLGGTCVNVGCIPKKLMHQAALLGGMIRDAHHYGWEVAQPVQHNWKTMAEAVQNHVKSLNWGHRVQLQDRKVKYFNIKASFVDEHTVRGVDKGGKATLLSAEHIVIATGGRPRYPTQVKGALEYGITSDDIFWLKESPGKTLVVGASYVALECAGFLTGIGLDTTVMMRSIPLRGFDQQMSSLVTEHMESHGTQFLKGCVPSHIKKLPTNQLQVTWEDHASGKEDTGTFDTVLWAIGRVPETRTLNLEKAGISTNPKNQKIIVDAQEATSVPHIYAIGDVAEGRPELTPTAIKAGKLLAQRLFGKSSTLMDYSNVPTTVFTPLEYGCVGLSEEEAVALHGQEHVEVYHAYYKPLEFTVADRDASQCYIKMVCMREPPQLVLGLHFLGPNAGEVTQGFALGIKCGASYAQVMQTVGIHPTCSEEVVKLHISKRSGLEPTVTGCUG

By IC50 is commonly meant the midpoint of a concentration-inhibition curve. `C[CH2][Hg]` [EtHg, ethylmercury]: the IC50 worked out at 2700 ± 300 nM in test [1] (GL261, 24 h exposure); 2400 ± 400 nM in test [1] (GL261, 48 h exposure); 970 ± 70 nM in test [1] (GL261, 72 h exposure); 800 nM in test [3]; 1300 nM in test [4]. Further, the “decrease of TrxR activity” value was “lesser effect” in test [2] and 50% in test [3]. Also, the “increase in Prx2 dimerization relative to non-treated control” value in test [5] is 20–40%. The “increase in number of apoptotic cells compared to control” value in test [6] was > 50%.

On to `C[CH2][Hg][S]c1ccccc1C(=O)[O-].[Na+]` [TmHg, thimerosal], for which the IC50 in test [1] (GL261, 24 h exposure) worked out at 2500 ± 400 nM; in test [1] (GL261, 48 h exposure), 2500 ± 400 nM; in test [1] (GL261, 72 h exposure) it was 920 ± 100 nM; in test [3], 700 nM; in test [4], 700 nM. In addition, the “decrease of TrxR activity” value in test [2] and in test [3] was 60% each time. Moreover, in test [5], the “increase in Prx2 dimerization relative to non-treated control” value is on record as 20–40%. Also, the “increase in number of apoptotic cells compared to control” value in test [6] was > 50%.

The values are drawn from publication PMC9260667, “Thioredoxin Reductase Inhibitors as Potential Antitumors: Mercury Compounds Efficacy in Glioma Cells” (Frontiers in Molecular Biosciences, 2022).
